Experiment [1] deals with HIV-1 promoter (HIV-1 LTR). In words: HIV-1 transcriptional activity, luciferase test in HIV-LTR Jurkat line. The format is cell-based. Particulars: 10 μM AZT, treatment 24 hours, FIG. 5 (luciferase activity). The source says:
(§1) Method: a Jurkat CD4+ T lymphocyte cell line (line 1G5) having integrated into its genome a construction comprising a luciferase reporter gene the expression of which is controlled by the HIV-1 promoter (HIV-1 LTR; HIV-LTR Jurkat line) was used. The measurement of luciferase activity from the cell extracts therefore makes it possible to estimate the HIV-1 transcriptional activity.
(§2) The Jurkat HIV-LTR and Jurkat 1G5 lines were transfected by means of the DEAE-dextran technique with the proviral genome NL4.3 (complete HIV-1 genome, strain LAI).
(§3) The HIV-LTR Jurkat and 1G5 Jurkat lines thus infected, are treated 24 hours later with HPBP/PON protein complexes or with purified PON or HPBP proteins at a final concentration of 2 μg/mL of medium (52 nM of protein alone).
(§4) The cells and the cell supernatant are sampled after treatment for 24 hours.
(§5) The transcriptional activity is measured by carrying out a luciferase test. The intensity of the HIV-1 replication is measured by means of ELISA assay of the quantity of viral p24 capsid proteins present in the supernatant of the cell cultures of the infected 1G5 lines [Rohr, O., et al. (2000). The Journal of Biological Chemistry 275, 2654-2660]. […]
(§6) The transcriptional activity and inhibition of the replication are measured as described in Example 6.

Experiment [2] relates to HIV-1 (proviral genome NL4.3, strain LAI). Description: HIV-1 replication, ELISA of viral p24 capsid protein in supernatant of infected Jurkat 1G5 cells. Particulars: Human immunodeficiency virus 1; 10 μM AZT, treatment 24 hours, p24 in supernatant, Jurkat 1G5. The class given is cell-based.
Text: as §1, §2, §3, §4, §5, §6

Molecules are shown by their SMILES.

Usually inhibition stands for the change of the read-out against control, counted positive when it falls. A low value points to a weak effect. For `Cc1cn([C@H]2C[C@H](N=[N+]=[N-])[C@@H](CO)O2)c(=O)[nH]c1=O` [AZT, zidovudine, reference compound], in experiment [1], the “effect on the replication of the virus (FIG. 5)” value is “no effect”. The same compound returned an inhibition at 10 µM in experiment [2] of 60%.
